Experimental data from patent publication US20100291591A1, “NOVEL PLATING MEDIA” (priority 2007, published 2010).

Test system: S. aureus
Experiment: Tolerance of S. aureus towards ELF phosphate in S. aureus plating media
Format: cell-based
Settings: for Colony Growth: visual inspection relative to media without ELF phosphate
Excerpt: Varying concentrations of ELF® phosphate in S. aureus plating media were used to determine the effect on growth and sensitivity of S. aureus to ELF® phosphate. Colony growth in the presence of ELF® phosphate was compared to colony growth in media without ELF® phosphate.

With `O=P(O)(O)O.O=c1[nH]c(-c2cc(Cl)ccc2O)nc2ccc(Cl)cc12` [ELF ® Phosphate, 6-chloro-2-(5-chloro-2-hydroxyphenyl)-quinazolin-4(3H)-one phosphate] the “Colony Growth” value (ELF phosphate 0.080 g/L) was “Normal”, the “Colony Growth” value (ELF phosphate 0.200 g/L) was “Normal” and the “Colony Growth” value (ELF phosphate 0.400 g/L) was “Normal”. The “Colony Growth” value (ELF phosphate 0.600 g/L) was “Normal”, the “effect of concentration on growth” value (S. aureus plating media, 0.080-0.600 g/L) was “no effect on growth” and the “inhibition of the growth of S. aureus strains” value (concentrations of 500 mg/L and higher) was “do not significantly inhibit”.
